Measured values: patent publication US12084473B2, “β-D-2′-deoxy-2′-α-fluoro-2′-β-C-substituted-2-modified-N6-substituted purine nucleotides for HCV treatment” (Atea Pharmaceuticals, Inc., priority 2015, dated 2024)

Columns and labels:
[1] = Cytotoxicity by XTT staining in replicon cells; settings: human
Description: (§1) The plates were cultured for 24 hours prior to the addition of compounds. Six serial one half log dilutions of the test articles (high test concentration of 100.0 μM or high test concentration of 1.0 μM) and human interferon-alpha2b (high test 10.0 U/ml) were prepared in cell culture medium and added to the cultured cells in triplicate wells for each dilution. Six wells in the test plates received medium alone as an untreated control. Following 72 hours of culture in the presence of compound, one of the plates was used for the determination of cytotoxicity by staining with XTT and the other for antiviral efficacy by determination of luciferase reporter activity. Cytotoxicity and efficacy data were collected and imported into a customized Excel workbook for determination of the TC50 and EC50 values. […] The y-axis is the percent of virus control and the x-axis is the concentration of drug in μM. […] The y-axis is the percent of virus control and the x-axis is the concentration of drug in M.

Huh-7 luc/neo ET cells = experiment: Cytotoxicity by XTT staining in replicon cells
Description: as §1

[2] = tested on: HCV Genotype 1a, NS5B Mutation L159F and S282T; experiment: microbe, parasite or virus in culture; assay type: cell-based
Description: (§2) Various patient-derived HCV genotypes containing wild-type and resistance-associated variants were used to determine their relative replication sensitivity to test compounds. Replicon resistance test vectors (RTVs) containing the NS5B genomic regions were prepared using viral RNA isolated from plasma of HCV patients. Each NS5B region was amplified by reverse-transcription polymerase chain reaction and cloned into an HCV replicon RTV which was then transferred by electroporation into Huh-7 cells.

[3] = tested on: HCV Genotype 1a, NS5B Mutation L159F; experiment: microbe, parasite or virus in culture; assay type: cell-based
Description: as §2

[4] = tested on: HCV Genotype 1a, NS5B Mutation none; experiment: microbe, parasite or virus in culture; assay type: cell-based
Description: as §2

[5] = tested on: HCV Genotype 1b, NS5B Mutation C316N; experiment: microbe, parasite or virus in culture; assay type: cell-based
Description: as §2

[6] = tested on: HCV Genotype 1b, NS5B Mutation none; experiment: microbe, parasite or virus in culture; assay type: cell-based
Description: as §2

[7] = tested on: HCV Genotype 2a, NS5B Mutation none; experiment: microbe, parasite or virus in culture; assay type: cell-based
Description: as §2

[8] = tested on: HCV Genotype 2b, NS5B Mutation none; experiment: microbe, parasite or virus in culture; assay type: cell-based
Description: as §2

[9] = tested on: HCV Genotype 3a-1, NS5B Mutation none; experiment: microbe, parasite or virus in culture; assay type: cell-based
Description: as §2

[10] = tested on: HCV Genotype 3a-2, NS5B Mutation none; experiment: microbe, parasite or virus in culture; assay type: cell-based
Description: as §2

[11] = tested on: HCV Genotype 4a, NS5B Mutation none; experiment: microbe, parasite or virus in culture; assay type: cell-based
Description: as §2

[12] = tested on: HCV Genotype 4d, NS5B Mutation none; experiment: microbe, parasite or virus in culture; assay type: cell-based
Description: as §2

HCV S282T replicon = experiment: microbe, parasite or virus in culture; assay type: cell-based
Description: (§3) A transient transfection assay was performed to determine the sensitivity of the […] of HCV to test compounds. Huh-7 cells were electroporated in the presence of RNA transcribed from wild type or S282T HCV replicon plasmids from the T7 promoter. The transfected cells were seeded in to 96-well plates at 7.5×10^3 cells per well in Dulbecco's Modified Eagle's medium. After 24 hr of incubation, medium was removed and replaced with fresh medium containing no or various concentrations of test compounds. Following an additional 96-hr incubation, the anti-HCV activity was measured by luciferase endpoint with Britelite™ Plus luminescence reporter gene kit (Perkin Elmer, Shelton, CT). Duplicate plates were treated and incubated in parallel for assessment of cellular toxicity by staining with the tetrazolium dye XTT.

HCV wild type replicon = experiment: microbe, parasite or virus in culture; assay type: cell-based; settings: NS5B Mutation None
Description: as §3

human hepatocytes = experiment: Metabolic studies in primary hepatocytes; assay type: in vitro ADME; settings: 10 μM, 2-24 hr
Description: The metabolism of compounds 25, 27 and 5-2, at a concentration of 10 μM, were investigated in fresh primary cultures of human, dog and mouse hepatocytes. Plated hepatocytes from humans (XenoTech, mixed gender, pooled from 10 donors), male Beagle dog (BioreclamationIVT), and male ICR/CD-1 mice (BioreclamationIVT, 8 donors) in 6-well plates with matrigel overlay were incubated in singlet with 10 μM TA. After 2, 4, 6, 8 or 24 hr, intracellular levels of nucleotide prodrugs and their potential metabolites (prodrugs, monophosphates, triphosphates and nucleosides) were quantitated by LC-MS/MS. Concentrations below the lower limit of quantitation (1.5 pmol/10^6 cells for prodrugs, monophosphates and nucleosides and 12 pmol/10^6 cells for triphosphates) were extrapolated from the standard curves.

[13] = tested on: HCV genotype 1b luciferase reporter replicon; experiment: microbe, parasite or virus in culture; assay type: cell-based; settings: Hepatitis C virus, HuH-7-Luc/Neo-ET, 72 h, read-out: HCV Replicon EC50/EC95: EC50
[14] = Hepatitis C virus, read-out: IC50 Value
[15] = genotype 1a, NS5B L159F and S282T
[16] = genotype 3a-1, no NS5B mutation
[17] = genotype 3a-2, no NS5B mutation
[18] = Hepatitis C virus, 96 h, read-out: IC50 Value

Compound: CNc1nc(N)nc2c1ncn2[C@@H]1OC(CO[P@@](=O)(N[C@@H](C)C(=O)OC(C)C)Oc2ccccc2)[C@@H](O)[C@@]1(C)F (stereo partly drawn) [Compound 5-2]
- CC50 at 72 h [1]: > 100000 nM
- TC50 (Huh-7 luc/neo ET cells): greater than one hundred
- cross-resistance to L159F and S282T mutant [2]: neither 25, 27 nor 5-2 compound showed any evidence of cross-resistance
- IC50 [2, 14]: 38.7 nM
- Fold Change in IC50 from Sofosbuvir [2, 15]: 41.9
- Fold Change in IC95 from Sofosbuvir [2, 15]: 54.1
- IC95 Value [2, 15]: 313.5 nM
- cross-resistance to L159F mutant [3]: neither 25, 27 nor 5-2 compound showed any evidence of cross-resistance
- IC50 [3, 14]: 13 nM
- Fold Change in IC50 from Sofosbuvir ([3]; genotype 1a, NS5B L159F): 8.8
- Fold Change in IC95 from Sofosbuvir ([3]; genotype 1a, NS5B L159F): 11.2
- IC95 Value ([3]; genotype 1a, NS5B L159F): 95.3 nM
- IC50 [4, 14]: 10.5 nM
- Fold Change in IC50 from Sofosbuvir ([4]; genotype 1a, no NS5B mutation): 6.0
- Fold Change in IC95 from Sofosbuvir ([4]; genotype 1a, no NS5B mutation): 8.4
- IC95 Value ([4]; genotype 1a, no NS5B mutation): 60.8 nM
- cross-resistance to C316N mutant [5]: neither 25, 27 nor 5-2 compound showed any evidence of cross-resistance
- IC50 [5, 14]: 7.7 nM
- Fold Change in IC50 from Sofosbuvir ([5]; genotype 1b, NS5B C316N): 9.6
- Fold Change in IC95 from Sofosbuvir ([5]; genotype 1b, NS5B C316N): 11.1
- IC95 Value ([5]; genotype 1b, NS5B C316N): 42.7 nM
- IC50 [6, 14]: 10.6 nM
- Fold Change in IC50 from Sofosbuvir ([6]; genotype 1b, no NS5B mutation): 0.8
- Fold Change in IC95 from Sofosbuvir ([6]; genotype 1b, no NS5B mutation): 8.9
- IC95 Value ([6]; genotype 1b, no NS5B mutation): 72.4 nM
- IC50 [7, 14]: 6.2 nM
- Fold Change in IC50 from Sofosbuvir ([7]; genotype 2a, no NS5B mutation): 3.6
- Fold Change in IC95 from Sofosbuvir ([7]; genotype 2a, no NS5B mutation): 4.3
- IC95 Value ([7]; genotype 2a, no NS5B mutation): 45.4 nM
- IC50 [8, 14]: 6.3 nM
- Fold Change in IC50 from Sofosbuvir ([8]; genotype 2b, no NS5B mutation): 7.1
- Fold Change in IC95 from Sofosbuvir ([8]; genotype 2b, no NS5B mutation): 9.1
- IC95 Value ([8]; genotype 2b, no NS5B mutation): 32.5 nM
- IC50 [9, 14]: 11.8 nM
- Fold Change in IC50 from Sofosbuvir [9, 16]: 10.7
- Fold Change in IC95 from Sofosbuvir [9, 16]: 11.6
- IC95 Value [9, 16]: 59.3 nM
- IC50 [10, 14]: 10.4 nM
- Fold Change in IC50 from Sofosbuvir [10, 17]: 11.9
- Fold Change in IC95 from Sofosbuvir [10, 17]: 14.3
- IC95 Value [10, 17]: 56.5 nM
- IC50 [11, 14]: 9.9 nM
- Fold Change in IC50 from Sofosbuvir ([11]; genotype 4a, no NS5B mutation): 7.5
- Fold Change in IC95 from Sofosbuvir ([11]; genotype 4a, no NS5B mutation): 9.2
- IC95 Value ([11]; genotype 4a, no NS5B mutation): 74.4 nM
- IC50 [12, 18]: 14 nM
- Fold Change in IC50 from Sofosbuvir ([12]; genotype 4d, no NS5B mutation): 6.7
- Fold Change in IC95 from Sofosbuvir ([12]; genotype 4d, no NS5B mutation): 12.8
- IC95 Value ([12]; genotype 4d, no NS5B mutation): 79.9 nM
- cross-resistance to S282T variant (HCV S282T replicon): neither 25, 27, nor 5-2 compounds showed any evidence of cross-resistance
- IC50 (HCV S282T replicon; [18]): 2.8 nM
- Fold Change in IC50 from Sofosbuvir (HCV S282T replicon; NS5B Mutation S282T): 99.3
- Fold Change in IC95 from Sofosbuvir (HCV S282T replicon; NS5B Mutation S282T): <48.5
- IC95 Value (HCV S282T replicon; NS5B Mutation S282T, transient assay, 96-hr): 20.6 nM
- IC50 (HCV wild type replicon; Hepatitis C virus, transient assay, 96-hr, read-out: IC50 Value): 1.4 nM
- Fold Change in IC50 from Sofosbuvir (HCV wild type replicon): 26
- Fold Change in IC95 from Sofosbuvir (HCV wild type replicon): 22.2
- IC95 Value (HCV wild type replicon; transient assay, 96-hr): 9.98 nM
- predominant metabolite observed in cultured human hepatocytes (human hepatocytes): β-D-2′-deoxy-2′-α-fluoro-2′-β-methyl-guanine triphosphate
- EC50 [13]: 4 nM
